Data set [1] concerns RNR2 regulatory element-GFP reporter. As to the kind of experiment: RNR2-GFP reporter assay (pGenRNR2), cuvette and microplate. In kind it is cell-based, Saccharomyces cerevisiae. The following applies: yeast test strain transformed with pGenRNR2. The source says: (§1) In addition to the RAD54 vectors described in the previous Examples, the inventors constructed an FF18984 reporter strain containing a replicative plasmid harbouring an RNR regulatory element. The vectors pGenRNR2 or pGenRNR3 are shown in FIGS. 24 and 25, respectively, and contain the upstream non-coding DNA sequence of the RNR2 gene or RNR3 gene fused to the yeast-enhanced Aequorea victoria GFP gene. A control FF18984 strain containing an identical plasmid except that 2 base pairs have been removed at the start of the GFP gene, such that no GFP is made, was also examined.
In order to test the brightness of the reporter for RNR2 constructs, similar methodology was used as for RAD54 constructs, as described in the previous Examples, but using instead pGENRNR2.
On the technique in general: In a reporter assay the amount or activity of a reporter protein is the signal.

Data set [2] deals with yeast strain GenT01 (FF18984). The data set is described as follows: GreenScreen assay (GSA), cytotoxicity: final cell density by absorbance. The following applies: GenT01 yeast, overnight at 25° C. As for the experimental part: The following standard protocol was followed. A 1 mM stock of the test chemical was prepared in 2% v/v aqueous DMSO, and used to make 2 identical dilution series across the microplate and a ‘control’ (see below). To achieve this, 150 microlitres of the test chemical solution were put into 2 microplate wells. Each sample was serially diluted by transferring 75 microlitres into 75 microlitres of 2% DMSO, mixing, and then taking 75 microlitres out and into the next well. This produced 9 serial dilutions of 75 microlitres each.
75 microlitres of the yeast suspension were added to each well of the diluted chemical: GenT01 to one series and GenC01 to the second, and to appropriate standards and controls. After the plates were filled, they were sealed using either a gas permeable membrane (Breath-easy, Diversified Biotech, USA) or a plastic lid, and then incubated without shaking, overnight at 25° C.
Following overnight incubation, fluorescence and absorbance data were collected from the microplates. […] Absorbance was measured through a 620 nm filter in both instruments. […] Fluorescence data were divided by absorbance data to give ‘brightness units’, the measure of average GFP induction per cell. […] In this way, one can distinguish between a small number of highly fluorescent cells and a large number of weakly fluorescent cells. In order to correct for induced cellular autofluorescence and intrinsic compound fluorescence, the brightness values for the GenC01 strain were subtracted from those of GenT01. This makes visual assessment of the data more reliable.
The cytotoxicity threshold is set at 80% of the cell density reached by the untreated control cells.
Table 12 lists chemicals/solvents that are often used with test samples, to promote dissolution etc. […] If these chemicals are used to dissolve compound stock solutions, they should also be included in the diluent used to make the compound dilution series. […] Interference of DMSO, a free radical scavenger, in the recombinogenic properties of several oxidising agents has previously been reported.

Data set [3] deals with RNR3 regulatory element-GFP reporter. As to the kind of experiment: RNR3-GFP reporter microplate assay (pGenRNR3). To be noted: yeast test strain transformed with pGenRNR3. In kind it is cell-based, Saccharomyces cerevisiae.
Excerpt: as §1
In order to test the brightness of the reporter for RNR3 constructs, similar methodology was used as for RAD54 constructs, as described in the previous Examples, but using instead pGENRNR3.

Data set [4] relates to RAD54 promoter-GFP reporter (pGen001). The following applies: for GSA genotoxicity result: GenT01 yeast, overnight at 25° C., 2% DMSO diluent, no S9.
For the next data set, the system named is SOS umuC. To be noted: cited from earlier work.
Data set [5] relates to RAD54 promoter-yEGFP reporter. The data set is described as follows: Fluorescence assay with intact yeast cells in cuvettes, RAD54-GFP reporter plasmid pWDH445 and rearranged derivatives. In kind it is cell-based, Saccharomyces cerevisiae. To be noted: 0.005% MMS, 15 hours. On the procedure: Starter cultures were initiated by inoculating 1.5 ml of F1 medium (plus appropriate nutritional supplements and 2% glucose) in sterile 15 ml polythene centrifuge tubes with small portions of colonies, picked by inoculating loop from stock plates. These starter cultures were grown for up to 24 hours at 30° C. with shaking (at 120 rpm) and were used as the source of inoculum for the assay cultures. Cells were inoculated into 1.5 ml F1 cultures in 15 ml polythene centrifuge tubes to give an initial OD600 nm of ˜0.1 (typically a 10-15 μl inoculum per 1.5 ml culture). The lids of the tubes were left one-quarter unscrewed, but held in place by masking tape, to ensure maximum oxygenation for GFP maturation. Half of the tubes were treated with 0.005% methyl methanesulphonate (MMS, methanesulphonic acid methyl ester) and half left as unchallenged controls. MMS was purchased as a liquid and this stock solution was taken to be 100%. […] For the measurement of intact yeast cell fluorescence of cells grown in YPD or SD, the cells were washed twice in sterile water to remove traces of autofluorescent medium and resuspended in 1.5 ml of sterile water. […] 4-window cuvettes were necessary since measurement of fluorescence emission is performed perpendicular to the path of excitation light.
Fluorescence measurements were performed with a Perkin-Elmer LS50B Fluorescence Spectrometer (Perkin-Elmer Ltd., Beaconsfield, UK). […] For the yEGFP expressing reporter, the excitation and emission wavelengths were set to 490 nm and 518 nm respectively (due to the altered fluorescence characteristics of yEGFP), with 5 nm slit widths. To account for differences in cell numbers between YPD or SD assay cultures, the OD600 nm was recorded for each cuvette. Similarly, in order to measure protein extraction efficiency, light absorption at 280 nm (OD280 nm) was measured for crude cell extracts. […] The y-axis on uncorrected fluorescence scans gives raw data in the form of machine defined fluorescence intensity (“INT”) units. […]

The subject of the next data set is SOS lux. The following applies: cited from earlier work.

“And” between values parts separate entries of the source, which are not always exact repeats. Equal entries are not always repeated. Where two headings read alike, the source gives them in different places.

As to `COS(C)(=O)=O` [MMS, methyl methanesulfonate], in data set [1], the “brightness/fluorescence of GFP reporter” value was “induced”. Also, in data set [2], the GSA cytotoxicity result is on record as “strongly cytotoxic”. Moreover, the “fluorescence induction by the reporter” value in data set [3] is given as “increases with increasing concentration”. The GSA genotoxicity result in data set [4] is listed as “induced”; in data set [4] (listed as Methyl methanesulfonate), “genotoxic”. The “GSA (M), lowest effective concentration (LEC)” value in data set [4] (S9 −) came to 9.3e-06 M. Further, the “SOS UMUC ASSAY (M), LEC” value with SOS umuC is 0.00015 M. For the same compound, the induction ratio in data set [5] (FF18984 cells bearing normal pWDH445) was 7.72 and 5.5; in data set [5] (FF18984 cells re-transformed with modified (rearranged) plasmid), 5.2; in data set [5] (original bright variant FF18984 cells carrying pWDH445), 3.27. The “SOS LUX ASSAY (M), LEC” value in the data set on SOS lux was 7.3e-05 M.
